Reference: ChEMBL document CHEMBL1144085, “DNA polymerase beta inhibitors from Sandoricum koetjape” (J Nat Prod, 1999)
Calls of active or inactive are those of the source. The calls are words filed in the database; no cut-off is given here.

Legend:
[1] = target: DNA polymerase beta (Rattus norvegicus) (UniProt P06766); test: (§1) Inhibition of rat DNA polymerase beta
DNA polymerase beta = DNA polymerase beta (Rattus norvegicus, UniProt P06766); test: as §1
[2] = target: DNA polymerase beta (Rattus norvegicus) (UniProt P06766); test: Activity of rat DNA polymerase beta using variable levels of [3H]TTP substrate by Lineweaver-Burke plot
[3] = target: DNA polymerase beta (Rattus norvegicus) (UniProt P06766); test: Activity of rat DNA polymerase beta using variable levels of DNA template primer by Lineweaver-Burke plot

| SMILES | Activity [1] | IC50 (DNA polymerase beta) [µM] | Kii [2] [µM] | Kis [2] [µM] | Kii [3] [µM] | Kis [3] [µM] |
| --- | --- | --- | --- | --- | --- | --- |
| COC(=O)[C@]1(C)CC[C@]2(C)CC[C@]3(C)C(=CC[C@@H]4[C@@]5(C)CC[C@@H](O)C(C)(C)[C@@H]5CC[C@]43C)[C@@H]2C1 | inactive |  |  |  |  |  |
| CC1(C)/C(=N\OCc2ccccc2)CC[C@]2(C)[C@H]3CC=C4[C@@H]5C[C@](C)(C(=O)O)CC[C@]5(C)CC[C@@]4(C)[C@]3(C)CC[C@@H]12 |  | 35 | 22 | 69 | 24 | 37 |
| CO/N=C1/CC[C@]2(C)[C@H]3CC=C4[C@@H]5C[C@](C)(C(=O)O)CC[C@]5(C)CC[C@@]4(C)[C@]3(C)CC[C@H]2C1(C)C |  | 36 | 35 | 73 | 35 | 9.1 |
| C=C(C)[C@@H]1CC[C@]2(C)[C@H](CC=C3[C@@H]4C[C@@](C)(C(=O)O)CC[C@]4(C)CC[C@]32C)[C@@]1(C)CCC(=O)O [KOETJAPIC ACID] |  | 20 | 11 | 24 | 18 | 5.6 |
| CC1(C)/C(=N\O)CC[C@]2(C)[C@H]3CC=C4[C@@H]5C[C@](C)(C(=O)O)CC[C@]5(C)CC[C@@]4(C)[C@]3(C)CC[C@@H]12 |  | 16 | 10 | 16 |  |  |
| CC1(C)[C@H](O)CC[C@]2(C)[C@H]3CC=C4[C@@H]5C[C@](C)(C(=O)O)CC[C@]5(C)CC[C@@]4(C)[C@]3(C)CC[C@@H]12 [KATONIC ACID] |  | 36 | 24 | 60 | 11 | 4.2 |

The next lines start with the values.

| Activity [1] | IC50 (DNA polymerase beta) [µM] | Kii [2] [µM] | Kis [2] [µM] | Kii [3] [µM] | Kis [3] [µM] | SMILES |
| --- | --- | --- | --- | --- | --- | --- |
| inactive |  |  |  |  |  | CC(C)(C)NC(=O)[C@]1(C)CC[C@]2(C)CC[C@]3(C)C(=CC[C@@H]4[C@@]5(C)CCC(=O)C(C)(C)[C@@H]5CC[C@]43C)[C@@H]2C1 |
|  | 22 | 9.1 | 60 | 50 | 5.5 | CC1(C)C(=O)CC[C@]2(C)[C@H]3CC=C4[C@@H]5C[C@](C)(C(=O)O)CC[C@]5(C)CC[C@@]4(C)[C@]3(C)CC[C@@H]12 |
| inactive |  |  |  |  |  | COC(=O)[C@]1(C)CC[C@]2(C)CC[C@]3(C)C(=CC[C@@H]4[C@@]5(C)CCC(=O)C(C)(C)[C@@H]5CC[C@]43C)[C@@H]2C1 |
| inactive |  |  |  |  |  | CCOC(=O)[C@]1(C)CC[C@]2(C)CC[C@]3(C)C(=CC[C@@H]4[C@@]5(C)CCC(=O)C(C)(C)[C@@H]5CC[C@]43C)[C@@H]2C1 |
| inactive |  |  |  |  |  | CCCCNC(=O)[C@]1(C)CC[C@]2(C)CC[C@]3(C)C(=CC[C@@H]4[C@@]5(C)CCC(=O)C(C)(C)[C@@H]5CC[C@]43C)[C@@H]2C1 |
| inactive |  |  |  |  |  | CC1(C)C(=O)CC[C@]2(C)[C@H]3CC=C4[C@@H]5C[C@](C)(C(N)=O)CC[C@]5(C)CC[C@@]4(C)[C@]3(C)CC[C@@H]12 |
| inactive |  |  |  |  |  | CCN(CC)C(=O)[C@]1(C)CC[C@]2(C)CC[C@]3(C)C(=CC[C@@H]4[C@@]5(C)CCC(=O)C(C)(C)[C@@H]5CC[C@]43C)[C@@H]2C1 |
